Target: T1, T349M-mutant Menin (Homo sapiens, UniProt O00255, T344M)
T1 construct: made in house; host or cells: E. coli BL21-DE3 Rosetta
T1 sequence (O00255 1-615 isoform O00255-1 T349M): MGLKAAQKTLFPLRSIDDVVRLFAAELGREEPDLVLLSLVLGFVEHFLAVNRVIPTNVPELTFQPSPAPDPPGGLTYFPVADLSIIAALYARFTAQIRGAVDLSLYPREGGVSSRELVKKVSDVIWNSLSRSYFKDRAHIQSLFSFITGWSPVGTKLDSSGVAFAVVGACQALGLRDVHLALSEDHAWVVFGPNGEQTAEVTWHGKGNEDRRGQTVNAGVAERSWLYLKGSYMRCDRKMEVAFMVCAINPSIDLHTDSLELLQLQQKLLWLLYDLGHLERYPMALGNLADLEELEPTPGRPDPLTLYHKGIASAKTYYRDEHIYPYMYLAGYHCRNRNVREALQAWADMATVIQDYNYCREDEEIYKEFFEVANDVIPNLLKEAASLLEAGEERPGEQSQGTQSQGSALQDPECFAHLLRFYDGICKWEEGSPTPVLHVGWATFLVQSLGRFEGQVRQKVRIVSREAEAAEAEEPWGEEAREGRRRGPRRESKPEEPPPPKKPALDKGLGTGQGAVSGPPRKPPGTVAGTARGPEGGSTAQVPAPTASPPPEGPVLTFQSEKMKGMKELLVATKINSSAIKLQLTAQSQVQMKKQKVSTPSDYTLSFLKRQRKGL
Assay: competitive MLL1 fluorescence polarization (FP) binding assay, displacement of MLL1 peptide
Description: The following peptides were synthesized by GenScript: N-terminal FITC-conjugated MLL14-43(C-A) peptide probe ([…]) with a C-A modification that improves binding to Menin^19, MLL14-43(C-A) ([…]) and MLL14-43(WT) ([…]). N-terminally FITC-labelled and unmodified MLL2 peptides (MLL2(15-48) […]) were synthesized at Genscript. To derive the FITC-MLL14-43(C-A) peptide Kd. FITC-conjugated MLL14-43(C-A) peptide probe at final concentration of 1 nM was mixed with increasing concentration of purified StrepII-Avi-TEV-Menin (5 μM final top concentration, 2-fold, 23-point dilution and a buffer control) in an assay buffer (50 mM Tris pH 7.5, 200 mM NaCl, 0.1% Pluronic F-68 solution (Sigma)) in 384-well microplates at 15 μL assay volume (Corning, 4514) and incubated for 30 min at room temperature (RT). For all assays change in fluorescence polarization was monitored using a PHERAstar FS microplate reader (BMG Labtech). The FITC-conjugated MLL14-43(C-A) peptide Kd was obtained from a fit in GraphPad Prism 9 using one site total model and averaged from three independent runs with three replicates (n=3, FIG. 8). In competitive titration experiments Menin proteins (1 nM WT, 1 nM M327I or 3 nM for T349M) and 1 nM FITC-conjugated MLL14-43(C-A) peptide probe were incubated in an assay buffer for 30 min. SNDX-5613 was then dispensed to 384-well microplate (Corning, 4514) containing 15 μL of the assay mix using D300e Digital Dispenser (HP) and normalized to 1% DMSO followed by 90 min incubation. The fluorescence polarization was monitored by PHERAstar FS microplate reader (BMG Labtech). The MLL14-43(WT) and MLL14-43(C-A) peptide titrations were performed by addition of 7.5 μL of 2-fold 23-point serial dilution into 7.5 μL of assay mix with the final concentrations of 1 nM FITC-conjugated MLL4-43 peptide probe, 1 nM WT Menin or 1 nM Menin M327I or 3 nM Menin T349M in assay buffer. The fluorescence polarization was monitored by PHERAstar FS microplate reader (BMG Labtech). For analysis of the competitive titration experiments the last 10 cycles of the data were averaged to obtain technical replicates. Data from three independent replicates (n=3) was plotted and IC50 values estimated using variable slope equation in GraphPad Prism 9. The calculation of Ki values was performed using Ki calculator available at websites.umich.edu/˜shaomengwanglab/software/calc_ki/index.html^23.

| Structure (SMILES) | effect of T349M on binding in the fluorescence polarization assay (T349M mutant Menin) | increase of IC50-value for MLL-displacement compared to WT Menin (T349M mutant vs WT Menin) [fold] |
| --- | --- | --- |
| CNc1nc(NC2CCN(Cc3ccc4c(cc(C#N)n4CC45CC(NC=O)(C4)C5)c3C)CC2)c2cc(CC(F)(F)F)sc2n1 [MI-3454] | less affected |  |
| CCN(C(=O)c1cc(F)ccc1Oc1cncnc1N1CC2(CCN(C[C@H]3CC[C@H](NS(=O)(=O)CC)CC3)CC2)C1)C(C)C [SNDX-5613, revumenib] |  | 111 |
